Laboratory results taken from PubChem BioAssay (NCI).
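Tested at 5 concentrations; 48 h exposure; 96-well plates; endpoints linearly interpolated, else capped at highest concentration. GI50: concentration for 50% inhibition of growth. At the TGI there is no net growth.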 Where a SMILES comes first, the peptide text is derived from it. Peptide text beside a SMILES is read from it. The star is where a group is joined. * marks the point of attachment. Palmitoyl = CCCCCCCCCCCCCCCC(=O)*; Boc = CC(C)(C)OC(=O)*

How the values were obtained:
Experiment in all cases: DTP human tumour cell line panel, 48 h
[1] = tested on: HCC-2998 colon
[2] = tested on: MOLT-4 leukemia
[3] = tested on: HT29 colon
[4] = tested on: HCT-116 colon
[5] = tested on: COLO 205 colon
[6] = tested on: LOX IMVI melanoma
[7] = tested on: DU-145 prostate
[8] = tested on: MDA-MB-435
[9] = tested on: K-562 leukemia

Compound	TGI [1] [µM]	TGI [2] [µM]	TGI [3] [µM]	TGI [4] [µM]	TGI [5] [µM]	TGI [6] [µM]	TGI [7] [µM]	TGI [8] [µM]	TGI [9] [µM]	GI50 [1] [µM]	GI50 [2] [µM]	GI50 [3] [µM]	GI50 [4] [µM]	GI50 [5] [µM]	GI50 [7] [µM]	GI50 [8] [µM]	GI50 [9] [µM]
CCCCCCCC(CC(=O)O)OC(=O)CC(CCCCCCC)OC1OC(C)C(O)C(O)C1OC1OC(C)C(O)C(O)C1O (stereo not drawn)	> 100	> 100	> 100	> 100	> 100	> 100	> 100	> 100	> 100								
BrCC[P+](c1ccccc1)(c1ccccc1)c1ccccc1	27.2	24.3	30.2	8.38	17.6	17.6	19.8	10.8	30.9								
CN(C)CCn1c(=O)c2ccc(NCCNCCO)c3c(=O)c4cc(O)ccc4n(c1=O)c23	2.18	1.17	5.2	3.15	4.6	4.42	4.97	6.53	> 30.5								
COc1ccc(C[C@H]2COC(=O)[C@@H]2Cc2cc(OC)c(OC)c(OC)c2)cc1OC	> 100	> 100	> 100	> 100	> 100	> 100	> 100	> 100	> 100								
COc1ccc(S(=O)(=O)Nc2ccc(-c3csc(N4C(=O)/C(=C/C=C\c5ccccc5)N=C4c4ccccc4)n3)cc2)cc1Cl		> 100	> 100	68.5	> 100	46.3	91.6	62	> 100								
COC(=O)c1ccc(OCc2ccc3nc(-c4ccccc4)c(Cl)nc3c2)cc1	> 100	> 100	> 100	> 100	> 100	> 100	> 100	> 100									
COc1cc(/C=C2\C[C@H]3[C@@H]4CC=C5C[C@@H](N6CCCC6)CC[C@]5(C)[C@H]4CC[C@]3(C)[C@H]2OC(C)=O)cc(OC)c1OC	10.4	22.5	21.6	30.5	25.6		32.9	26.8									
c1csc(-c2ccc(-c3ccc(-c4cccs4)s3)s2)c1	> 100	> 100	> 100	> 100	> 100	> 100	> 100	> 100									
CC(=O)Oc1ccc2c(c1)c1c(OC(C)=O)c3ccccc3c(OC(C)=O)c1n2Cc1cccc(C)c1	84.2	> 100	> 100	> 100	> 100		> 100	> 100	> 100								
CC(=O)c1nccc2c1c(C)nc1ccccc12		> 100	> 100	> 100	> 100	> 100	> 100	> 100	> 100								
C/C(=C/CC[C@](C)(OC1OC(CO)C(O)C(O)C1O)[C@H]1CC[C@]2(C)[C@@H]1CC[C@@H]1[C@@]3(C)CC[C@H](O)C(C)(C)[C@@H]3C[C@H](O)[C@]12C)CO (stereo partly drawn)		53.6	45.1	42.7	41	33.9	> 100	> 100	62.2								
O=C(O)c1ccccc1-c1ccccc1C(=O)c1ccccc1		> 100	> 100	> 100	> 100	> 100	> 100	> 100	> 100								
O=C(O)CCCc1nc2c(n1-c1ccccc1)C(=O)c1ccccc1C2=O	> 100	> 100		> 100	> 100	> 100	> 100		> 100								
COc1cccc(N2N=C3c4ccccc4-n4c(nc5ccccc54)C3C2N)c1 (stereo not drawn)	> 100		> 100	> 100	> 100	> 100	> 100	> 100									
Cn1c(=O)c2[nH]c(N/N=C3/SCC(=O)N3Cc3ccccc3)nc2n(C)c1=O	> 100	> 100	> 100	> 100	> 100		> 100	50.1	> 100								
COCCCN1C(=O)C2c3[nH]c4ccccc4c3C3CCC(C(C)(C)C)CC3C2C1=O (stereo not drawn)	54.6	70	34	38.6	> 10		> 100	> 100	> 10								
Cc1cnc2[nH]c(-c3ccccc3)cc(=O)c2c1	1.96	> 14.4	0.0732	> 100	> 100	> 100	> 100										
CCCCCCCCCCCCCCCC(=O)NC(CCCCN)C(=O)NCC(=O)NC(Cc1ccccc1)C(=O)N1CCCC1C(=O)NC(CO)C(=O)NC(Cc1ccc(O)cc1)C(=O)NC(CCCCN)C(=O)NC(CC(C)C)C(=O)NC(CCCN=C(N)N)C(=O)N1CCCC1C(=O)NCC(N)=O (stereo not drawn) (Palmitoyl-KGFPSYKLRPG-NH2; configuration not given here)	35.2	32.7	30.7	31.8	41.1		49.4	50.8	47.9	17.1	16.5	17	15.3	19.6	20.2	19	22.2
CC(=O)Nc1ncc2c(n1)-c1ccccc1OC2		> 100	> 100	> 100	> 100	> 100	> 100	> 100									
Cc1ccc(S(=O)(=O)NC(=O)NS(=O)(=O)O)cc1		> 100	> 100	> 100	> 100	> 100	> 100		> 100								
COc1ccc(-c2c(C(C)=O)c(C)n(C3OC(CO)C(O)C(O)C3O)c(=S)c2C#N)cc1 (stereo not drawn)		> 100	> 100	> 100	> 100	> 100	> 100	> 100	> 100								
C=C1C(=O)O[C@H]2C(=O)[C@H](C)CCC[C@@](C)(O)/C=C\C[C@@]3(C)O[C@@H]3C[C@@H]12			28.4	20.2	30.4	32.2	27.6	36.1									
CSCCC(NC(=O)C(CC(C)C)NC(=O)CNC(=O)OC(C)(C)C)C(=O)N(C)C (stereo not drawn) (Boc-Gly-Leu-Met-NMe2; configuration not given here)		> 100	> 100	> 100	> 100	> 100	> 100	> 100	> 100								
